Experiments:
Format in all cases: cell-based
L6 myotube cells [1] = assay: 2-DG (glucose) absorption into L6 myotube cells
From the text: It is well known that the activation of AMPK also increases the glucose absorption into cells, and thus causes a blood glucose level reducing effect (Hardie, et al., FEBS Lett. 546, 113-120, 2003; Carling, et al., Trends. Biochem. Sci. 29, 18-24, 2004; Kahn, et al., Cell Metab. 1, 15-25, 2005; Cool, et al., Cell Metab. 3. 403-416, 2006; Lee et al., Diabetes, 55, 2256-2264, 2006; Hwang et al., Biochem. Biophys. Res. Commun. 371, 289-293, 2008). Accordingly, the treatment of damulin A and damulin B on L6 myotube cells was carried out to determine the influence on the glucose absorption into cells.
To cultured L6 myotube cells, high concentration glucose was added together with 2-DG (2-deoxy-[3H]D-glucose) (a radioactive isotope that is not decomposed within a cell) according to the method of Hwang et al. (Biochem. Biophys. Res. Commun. 377, 1253-1258), and then the accelerated extent of 2-DG absorption into cells by damulin A (30 μg/ml) and damulin B (5 μg/ml) was analyzed. As a result, in the damulin A-treated cells, the capability of absorbing glucose was increased by 42% on the average, and in the damulin B-treated cells, the capability was increased by about 79% (see FIG. 6). Therefore, based on the result, both damulin A and damulin B are determined to have a high anti-diabetes effect by decreasing blood glucose level.

L6 myotube cells [2] = assay: β-oxidation of fatty acid in L6 myotube cells
Description: When AMPK is activated, the activity of ACC is reduced, thereby reducing the concentration of malonyl-CoA within mitochondria. This accelerates the transport of fatty acid into mitochondria, and thereby increases β-oxidation. Thus, due to the reduction of body fat, an obesity inhibiting effect can be achieved. Cultured L6 myotube cells were treated with purely separated damulin A and damulin B, and the improving effect on β-oxidation of fatty acid was analyzed by the method of Hwang, et al. (Biochem. Biophys. Res. Commun. 377, 1253-1258).
As a result, it was observed that damulin A (30 μg/ml) and damulin B (5 μg/ml) increased β-oxidation of fatty acid 1.8 times and 2.6 times (see FIG. 5).

[3] = test system: ACC (acetyl-CoA carboxylase); assay: Phosphorylation of ACC (Ser-79) in L6 myotube cells, western blot; details: 2 hours, damulin A 10, 30, 60 μg/ml, damulin B 1, 5, 10 μg/ml, compared to control group
From the text: ACC is an important enzyme for regulating lipid metabolism in liver and muscle tissues. This enzyme carboxylates acetyl-CoA to produce malonyl-CoA. Malonyl-CoA is the most important factor for regulating β-oxidation of fatty acid within mitochondria. When the concentration of malonyl-CoA increases, the activity of CPT-1 (carnitine palmitoyl-CoA transferase) in mitochondrial membrane is reduced, thereby inhibiting β-oxidation of fatty acid, and on the other hand, when the concentration of malonyl-CoA decreases, β-oxidation is increased, accelerating the reduction of body fat. ACC is a subordinate target protein in AMPK activity, and is phosphorylated by the activation of AMPK. […]
Accordingly, differentiated L6 myotube cells were treated with individually separated damulin A with different concentrations (10, 30, and 60 μg/ml), and treated with individually separated damulin B with different concentrations (1, 5, and 10 μg/ml), for 2 hours. The increased extent of the phosphorylation of a threonine residue at (Thr)-172 of AMPK α subunit, and a serine residue at Ser-79 of an ACC enzyme protein was analyzed through western blot analysis according to the method of Hwang, et al. (Biochem. Biophys. Res. Commun. 371, 289-293, 2008). […] Also, both damulin A and damulin B were determined to be active ingredients which phosphorylate and activate AMPK, and phosphorylate and inactivate ACC. […]

AMPK = assay: Phosphorylation of AMPK (Thr-172 of α subunit) in L6 myotube cells, western blot; details: 2 hours, damulin A 10, 30, 60 μg/ml, damulin B 1, 5, 10 μg/ml, compared to control group
From the text: The activity of AMPK may be determined by determining whether or not the phosphorylation of a threonine amino acid residue at position 172 was increased.

SMILES | increase of capability of absorbing glucose (2-DG absorption into cells) (L6 myotube cells [1]; 30 μg/ml) [%] | increase of β-oxidation of fatty acid (L6 myotube cells [2]; 30 μg/ml) [times] | phosphorylation of serine residue Ser-79 of ACC [3] | phosphorylation of threonine residue (Thr)-172 of AMPK α subunit (AMPK) | increase of capability of absorbing glucose (2-DG absorption into cells) (L6 myotube cells [1]; 5 μg/ml) | increase of β-oxidation of fatty acid (L6 myotube cells [2]; 5 μg/ml) [times]
CC(C)=CC/C=C(/C)[C@H]1CC[C@]2(C)C1[C@H](O)CC1[C@@]3(C)C[C@@H](O)[C@H](OC4OC(CO)[C@@H](O)[C@H](O)[C@@H]4OC4OC(CO)[C@@H](O)[C@H](O)[C@@H]4O)C(C)(C)C3CC[C@]12C (stereo partly drawn) [damulin A, 2α,3β,12β-trihydroxydammar-20(22)-E,24-diene-3-O-[β-D-glucopyranosyl-(1→)-β-D-glucopyranoside]] | 42 | 1.8 | concentration-dependently increased the phosphorylation | concentration-dependently increased the phosphorylation | – | –
C=C(CCC=C(C)C)[C@H]1CC[C@]2(C)C1[C@H](O)CC1[C@@]3(C)C[C@@H](O)[C@H](OC4OC(CO)[C@@H](O)[C@H](O)[C@@H]4OC4OC(CO)[C@@H](O)[C@H](O)[C@@H]4O)C(C)(C)C3CC[C@]12C (stereo partly drawn) [damulin B, 2α,3β,12β-trihydroxydammara-20,24-diene-3-O-[β-D-glucopyranosyl-(1→)-β-D-glucopyranoside]] | – | – | concentration-dependently increased the phosphorylation | concentration-dependently increased the phosphorylation | about 79% | 2.6

— patent US8357786B2, “Method for preparing Gynostemma pentaphyllum extract with increasing damulin A and damulin B contents, and pharmaceutical compositions of the same for treating metabolic disease” (TG Biotech Co., Ltd., priority 2009, dated 2013)
